Test results published in patent US20260223853A1, “PESTICIDALLY ACTIVE HETEROCYCLIC DERIVATIVES WITH SULFUR CONTAINING SUBSTITUENTS” (SYNGENTA CROP PROTECTION AG, priority 2023, published 2026).

Tests used:
Format in all cases: in vivo
[1] = tested on: Chilo suppressalis (Striped Rice Stemborer); test: Example B1: Activity against Chilo suppressalis (striped rice stemborer), artificial diet, L2 larvae; conditions: 144 h, application rate of 200 ppm, 6 days after infestation, in comparison to untreated samples, read-out: control (at least one of mortality, anti-feedant effect, growth inhibition)
Procedure: Example B1: Activity Against Chilo suppressalis (Striped Rice Stemborer)
24-well microtiter plates with artificial diet were treated with aqueous test solutions prepared from 10′000 ppm DMSO stock solutions by pipetting. After drying, the plates were infested with L2 larvae (6-8 per well). The samples were assessed for mortality, anti-feeding effect, and growth inhibition in comparison to untreated samples 6 days after infestation. Control of Chilo suppressalis by a test sample is given when at least one of the categories mortality, anti-feedant effect, and growth inhibition is higher than the untreated sample.

[2] = tested on: Diabrotica balteata (Corn Root Worm); test: Example B2: Activity against Diabrotica balteata (corn root worm), maize sprouts, L2 larvae; conditions: 96 h, application rate of 200 ppm, 4 days after infestation, in comparison to untreated samples, read-out: effect in at least one of the two categories (mortality or growth inhibition)
Procedure: Example B2: Activity Against Diabrotica balteata (Corn Root Worm)
Maize sprouts placed onto an agar layer in 24-well microtiter plates were treated with aqueous test solutions prepared from 10′000 ppm DMSO stock solutions by spraying. After drying, the plates were infested with L2 larvae (6 to 10 per well). The samples were assessed for mortality and growth inhibition in comparison to untreated samples 4 days after infestation.

[3] = tested on: Myzus persicae (Green peach aphid); test: Example B4: Activity against Myzus persicae (green peach aphid), feeding/contact activity, sunflower leaf discs; conditions: foliar, 144 h, application rate of 200 ppm, 6 days after infestation
Procedure: Example B4: Activity against Myzus persicae (Green peach aphid) Feeding/Contact activity Sunflower leaf discs were placed onto agar in a 24-well microtiter plate and sprayed with aqueous test solutions prepared from 10′000 ppm DMSO stock solutions. After drying, the leaf discs were infested with an aphid population of mixed ages. The samples were assessed for mortality 6 days after infestation.

[4] = tested on: Plutella xylostella (Diamond Back Moth); test: Example B6: Activity against Plutella xylostella (diamond back moth), artificial diet, eggs; conditions: 192 h, application rate of 200 ppm, 8 days after infestation, in comparison to untreated samples, read-out: effect in at least one of the two categories (mortality or growth inhibition)
Procedure: Example B6: Activity Against Plutella xylostella (Diamond Back Moth)
24-well microtiter plates with artificial diet were treated with aqueous test solutions prepared from 10′000 ppm DMSO stock solutions by pipetting. After drying, Plutella eggs were pipetted through a plastic stencil onto a gel blotting paper and the plate was closed with it. The samples were assessed for mortality and growth inhibition in comparison to untreated samples 8 days after infestation. The following compounds gave an effect of at least 80% in at least one of the two categories (mortality or growth inhibition) at an application rate of 200 ppm: P.1, P.2, P.3, P.4, P.5, P.6, P.7, P.8, P.9, P.10, P.11, P.12.

[5] = tested on: Spodoptera littoralis (Egyptian Cotton Leaf Worm); test: Example B7: Activity against Spodoptera littoralis (Egyptian cotton leaf worm), cotton leaf discs, L1 larvae; conditions: foliar, 72 h, application rate of 200 ppm, 3 days after infestation, in comparison to untreated samples, read-out: control (at least one of mortality, anti-feedant effect, growth inhibition)
Procedure: Example B7: Activity Against Spodoptera littoralis (Egyptian Cotton Leaf Worm)
Cotton leaf discs were placed onto agar in 24-well microtiter plates and sprayed with aqueous test solutions prepared from 10′000 ppm DMSO stock solutions. After drying the leaf discs were infested with five L1 larvae. The samples were assessed for mortality, anti-feeding effect, and growth inhibition in comparison to untreated samples 3 days after infestation. Control of Spodoptera littoralis by a test sample is given when at least one of the categories mortality, anti-feedant effect, and growth inhibition is higher than the untreated sample.

[6] = tested on: Euschistus heros (Neotropical Brown Stink Bug); test: Example B3: Activity against Euschistus heros (neotropical brown stink bug), soybean leaves, N2 nymphs; conditions: 120 h, application rate of 200 ppm, 5 days after infestation, in comparison to untreated samples, read-out: effect in at least one of the two categories (mortality or growth inhibition)
Procedure: Example B3: Activity Against Euschistus heros (Neotropical Brown Stink Bug)
Soybean leaves on agar in 24-well microtiter plates were sprayed with aqueous test solutions prepared from 10′000 ppm DMSO stock solutions. After drying the leaves were infested with N2 nymphs. The samples were assessed for mortality and growth inhibition in comparison to untreated samples 5 days after infestation.

[7] = tested on: Myzus persicae (Green peach aphid); test: Example B5: Activity against Myzus persicae (green peach aphid), systemic activity, pea seedlings; conditions: 144 h, test rate of 24 ppm, 6 days after placing seedlings into test solutions
Procedure: Example B5: Activity Against Myzus persicae (Green Peach Aphid) Systemic Activity
Roots of pea seedlings infested with an aphid population of mixed ages were placed directly into aqueous test solutions prepared from 10′000 DMSO stock solutions. The samples were assessed for mortality 6 days after placing seedlings into test solutions.

CCS(=O)(=O)c1c(N2CCc3nc(C(F)(F)F)ccc3C2=O)nc2cc(C(F)(F)F)ccn12 [P.1, 6-[3-ethylsulfonyl-7-(trifluoromethyl)imidazo[1,2-a]pyridin-2-yl]-2-(trifluoromethyl)-7,8-dihydro-1,6-naphthyridin-5-one]
≥ 80%: percent control (mortality, anti-feedant effect or growth inhibition) at 200 ppm [1] | percent effect (mortality or growth inhibition) at 200 ppm [2] | mortality at 200 ppm [3] | percent effect (mortality or growth inhibition) at 200 ppm [4] | control at 200 ppm [5]

CCS(=O)(=O)c1cc(C2(C#N)CC2)cnc1N1CCc2cc(C(F)(F)F)ccc2C1=O [P.2, 1-[5-ethylsulfonyl-6-[1-oxo-6-(trifluoromethyl)-3,4-dihydroisoquinolin-2-yl]-3-pyridyl]cyclopropane-carbonitrile]
≥ 80%: percent control (mortality, anti-feedant effect or growth inhibition) at 200 ppm [1] | percent effect (mortality or growth inhibition) at 200 ppm [2] | percent effect (mortality or growth inhibition) at 200 ppm [6] | mortality at 200 ppm [3] | percent effect (mortality or growth inhibition) at 200 ppm [4]

CCS(=O)(=O)c1cc(C2(C#N)CC2)cnc1N1CCc2nc(C(F)(F)F)ccc2C1=O [P.3, 1-[5-ethylsulfonyl-6-[5-oxo-2-(trifluoromethyl)-7,8-dihydro-1,6-naphthyridin-6-yl]-3-pyridyl] cyclopropane-carbonitrile]
≥ 80%: percent control (mortality, anti-feedant effect or growth inhibition) at 200 ppm [1] | percent effect (mortality or growth inhibition) at 200 ppm [2] | percent effect (mortality or growth inhibition) at 200 ppm [6] | mortality at 200 ppm [3] | mortality at 24 ppm [7] | percent effect (mortality or growth inhibition) at 200 ppm [4] | control at 200 ppm [5]

CCS(=O)(=O)c1cc(C2(C#N)CC2)cnc1N1CCc2cc(OC(F)(F)F)ccc2C1=O [P.4, 1-[5-ethylsulfonyl-6-[1-oxo-6-(trifluoromethoxy)-3,4-dihydroisoquinolin-2-yl]-3-pyridyl] cyclopropane-carbonitrile]
≥ 80%: percent control (mortality, anti-feedant effect or growth inhibition) at 200 ppm [1] | percent effect (mortality or growth inhibition) at 200 ppm [2] | percent effect (mortality or growth inhibition) at 200 ppm [6] | mortality at 200 ppm [3] | percent effect (mortality or growth inhibition) at 200 ppm [4] | control at 200 ppm [5]

CCS(=O)(=O)c1cc(C2(C#N)CC2)cnc1N1CCc2nc(C(F)(F)C(F)(F)F)ccc2C1=O [P.5, 1-[5-ethylsulfonyl-6-[5-oxo-2-(1,1,2,2,2-pentafluoroethyl)-7,8-dihydro-1,6-naphthyridin-6-yl]-3-pyridyl] cyclopropane-carbonitrile]
≥ 80%: percent control (mortality, anti-feedant effect or growth inhibition) at 200 ppm [1] | percent effect (mortality or growth inhibition) at 200 ppm [2] | percent effect (mortality or growth inhibition) at 200 ppm [6] | percent effect (mortality or growth inhibition) at 200 ppm [4] | control at 200 ppm [5]

CCS(=O)(=O)c1cc(C2(C#N)CC2)cnc1N1CCc2c(ccc3c2OC(F)(F)O3)C1=O [P.6, 1-[6-(2,2-difluoro-6-oxo-8,9-dihydro-[1,3]dioxolo[4,5-f]isoquinolin-7-yl)-5-ethylsulfonyl-3-pyridyl]cyclopropane-carbonitrile]
≥ 80%: percent control (mortality, anti-feedant effect or growth inhibition) at 200 ppm [1] | percent effect (mortality or growth inhibition) at 200 ppm [2] | percent effect (mortality or growth inhibition) at 200 ppm [6] | mortality at 200 ppm [3] | percent effect (mortality or growth inhibition) at 200 ppm [4] | control at 200 ppm [5]

CCS(=O)(=O)c1cc(C2(C#N)CC2)cnc1N1CCc2nc(OC3CC3)ccc2C1=O [P.7, 1-[6-[2-(cyclopropoxy)-5-oxo-7,8-dihydro-1,6-naphthyridin-6-yl]-5-ethylsulfonyl-3-pyridyl]cyclopropane-carbonitrile]
≥ 80%: percent control (mortality, anti-feedant effect or growth inhibition) at 200 ppm [1] | percent effect (mortality or growth inhibition) at 200 ppm [2] | mortality at 200 ppm [3] | mortality at 24 ppm [7] | percent effect (mortality or growth inhibition) at 200 ppm [4] | control at 200 ppm [5]

CCS(=O)(=O)c1cc(C2(C#N)CC2)cnc1N1CCc2nc(Cl)ccc2C1=O [P.8, 1-[6-(2-chloro-5-oxo-7,8-dihydro-1,6-naphthyridin-6-yl)-5-ethylsulfonyl-3-pyridyl]cyclopropane-carbonitrile]
≥ 80%: mortality at 24 ppm [7] | percent effect (mortality or growth inhibition) at 200 ppm [4] | control at 200 ppm [5]

CCS(=O)(=O)c1cc(C2(C#N)CC2)cnc1N1CCc2nc(OCC(F)(F)Cl)ccc2C1=O [P.9, 1-[6-[2-(2-chloro-2,2-difluoro-ethoxy)-5-oxo-7,8-dihydro-1,6-naphthyridin-6-yl]-5-ethylsulfonyl-3-pyridyl]cyclopropane-carbonitrile]
≥ 80%: percent control (mortality, anti-feedant effect or growth inhibition) at 200 ppm [1] | percent effect (mortality or growth inhibition) at 200 ppm [2] | percent effect (mortality or growth inhibition) at 200 ppm [6] | mortality at 200 ppm [3] | percent effect (mortality or growth inhibition) at 200 ppm [4] | control at 200 ppm [5]

CCS(=O)(=O)c1cc(C2(C#N)CC2)cnc1N1CCc2nc(OCC(F)(F)C(F)F)ccc2C1=O [P.10, 1-[5-ethylsulfonyl-6-[5-oxo-2-(2,2,3,3-tetrafluoropropoxy)-7,8-dihydro-1,6-naphthyridin-6-yl]-3-pyridyl] cyclopropane-carbonitrile]
≥ 80%: percent control (mortality, anti-feedant effect or growth inhibition) at 200 ppm [1] | percent effect (mortality or growth inhibition) at 200 ppm [2] | mortality at 200 ppm [3] | percent effect (mortality or growth inhibition) at 200 ppm [4] | control at 200 ppm [5]

CCS(=O)(=O)c1cc(C2(C#N)CC2)cnc1N1CCc2nc(OCC(Cl)(Cl)Cl)ccc2C1=O [P.11, 1-[5-ethylsulfonyl-6-[5-oxo-2-(2,2,2-trichloroethoxy)-7,8-dihydro-1,6-naphthyridin-6-yl]-3-pyridyl]cyclopropane-carbonitrile]
≥ 80%: percent control (mortality, anti-feedant effect or growth inhibition) at 200 ppm [1] | percent effect (mortality or growth inhibition) at 200 ppm [4] | control at 200 ppm [5]

CCS(=O)(=O)c1cc(C2(C#N)CC2)cnc1N1CCc2nc(OCC(F)(F)C(F)(F)F)ccc2C1=O [P.12, 1-[5-ethylsulfonyl-6-[5-oxo-2-(2,2,3,3,3-pentafluoropropoxy)-7,8-dihydro-1,6-naphthyridin-6-yl]-3-pyridyl]cyclopropane-carbonitrile]
≥ 80%: percent control (mortality, anti-feedant effect or growth inhibition) at 200 ppm [1] | percent effect (mortality or growth inhibition) at 200 ppm [2] | mortality at 200 ppm [3] | percent effect (mortality or growth inhibition) at 200 ppm [4] | control at 200 ppm [5]

CCS(=O)(=O)c1cc(C2(C#N)CC2)cnc1N1CCc2nc(OCC(Cl)(Cl)C(F)(F)F)ccc2C1=O [P.13, 1-[6-[2-(2,2-dichloro-3,3,3-trifluoro-propoxy)-5-oxo-7,8-dihydro-1,6-naphthyridin-6-yl]-5-ethylsulfonyl-3-pyridyl]cyclopropane-carbonitrile]
≥ 80%: percent control (mortality, anti-feedant effect or growth inhibition) at 200 ppm [1] | control at 200 ppm [5]
